27 compounds from patent US9938281B2 (Merck Sharp & Dohme Corp., priority 2012, dated 2018) can be followed below.

One assay deals with T1, PI3K-delta (Homo sapiens, UniProt O00329).
T1 construct: purchased Upstate; Millipore 14-604
The experiment in a line: HTRF PI3K biochemical assay, delta isoform. The following applies: form screened (neutral or TFA salt) given, read-out: PI3Kdelta IC50. Background: TR-FRET usually uses a lanthanide donor and a delayed reading to cut background.

The target in a further assay is T2, PI3K-alpha (Homo sapiens, UniProt P42336).
T2 construct: purchased Upstate; Millipore 14-602
The experiment in a line: HTRF PI3K biochemical assay, alpha isoform. The following applies: ratio PI3K-alpha IC50 value / PI3K-delta IC50 value.

T1 sequence (O00329 whole entry): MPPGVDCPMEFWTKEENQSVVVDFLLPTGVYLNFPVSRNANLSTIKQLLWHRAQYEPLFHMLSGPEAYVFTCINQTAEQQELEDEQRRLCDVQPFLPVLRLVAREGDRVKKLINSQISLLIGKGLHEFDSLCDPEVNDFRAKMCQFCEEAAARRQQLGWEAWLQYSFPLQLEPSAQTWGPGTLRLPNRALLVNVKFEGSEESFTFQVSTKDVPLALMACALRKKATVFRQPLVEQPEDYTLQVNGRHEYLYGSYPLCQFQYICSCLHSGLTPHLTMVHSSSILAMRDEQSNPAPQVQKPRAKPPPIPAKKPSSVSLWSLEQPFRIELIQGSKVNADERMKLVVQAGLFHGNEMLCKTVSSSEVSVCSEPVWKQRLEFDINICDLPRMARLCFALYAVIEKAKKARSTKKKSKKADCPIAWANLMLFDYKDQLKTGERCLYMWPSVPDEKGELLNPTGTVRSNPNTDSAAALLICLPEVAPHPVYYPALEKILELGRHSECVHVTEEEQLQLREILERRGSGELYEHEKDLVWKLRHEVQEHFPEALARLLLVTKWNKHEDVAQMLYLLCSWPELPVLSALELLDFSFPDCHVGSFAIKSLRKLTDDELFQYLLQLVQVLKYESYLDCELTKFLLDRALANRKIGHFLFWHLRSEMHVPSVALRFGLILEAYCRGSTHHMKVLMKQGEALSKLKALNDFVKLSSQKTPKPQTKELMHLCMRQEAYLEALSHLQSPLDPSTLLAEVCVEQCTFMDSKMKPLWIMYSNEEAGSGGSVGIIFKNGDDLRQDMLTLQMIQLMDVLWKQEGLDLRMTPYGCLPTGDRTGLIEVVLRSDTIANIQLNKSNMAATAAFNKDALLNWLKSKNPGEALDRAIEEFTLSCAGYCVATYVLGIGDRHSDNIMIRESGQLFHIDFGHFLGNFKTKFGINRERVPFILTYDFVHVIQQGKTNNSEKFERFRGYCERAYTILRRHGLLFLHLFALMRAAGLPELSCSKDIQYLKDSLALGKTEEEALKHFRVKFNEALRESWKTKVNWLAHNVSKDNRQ
T1 sequence (P27986 whole entry partner): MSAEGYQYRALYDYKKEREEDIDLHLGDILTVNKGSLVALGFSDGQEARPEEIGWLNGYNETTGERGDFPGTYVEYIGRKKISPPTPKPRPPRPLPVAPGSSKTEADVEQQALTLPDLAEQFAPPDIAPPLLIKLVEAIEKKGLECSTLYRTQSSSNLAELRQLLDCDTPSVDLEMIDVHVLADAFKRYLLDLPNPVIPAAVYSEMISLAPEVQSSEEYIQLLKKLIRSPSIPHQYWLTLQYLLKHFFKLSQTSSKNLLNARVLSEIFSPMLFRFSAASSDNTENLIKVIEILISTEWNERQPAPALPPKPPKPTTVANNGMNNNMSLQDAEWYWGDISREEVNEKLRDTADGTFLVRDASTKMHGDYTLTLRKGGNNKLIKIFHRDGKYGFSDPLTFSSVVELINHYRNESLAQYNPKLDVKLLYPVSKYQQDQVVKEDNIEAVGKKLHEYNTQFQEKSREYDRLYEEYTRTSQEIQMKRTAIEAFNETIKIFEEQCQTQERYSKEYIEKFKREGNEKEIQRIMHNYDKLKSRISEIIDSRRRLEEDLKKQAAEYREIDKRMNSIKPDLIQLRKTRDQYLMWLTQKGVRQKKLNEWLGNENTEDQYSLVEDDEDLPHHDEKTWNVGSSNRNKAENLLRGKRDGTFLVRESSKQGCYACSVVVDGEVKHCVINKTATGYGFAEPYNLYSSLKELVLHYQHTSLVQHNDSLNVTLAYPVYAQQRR
T2 sequence (P42336 whole entry): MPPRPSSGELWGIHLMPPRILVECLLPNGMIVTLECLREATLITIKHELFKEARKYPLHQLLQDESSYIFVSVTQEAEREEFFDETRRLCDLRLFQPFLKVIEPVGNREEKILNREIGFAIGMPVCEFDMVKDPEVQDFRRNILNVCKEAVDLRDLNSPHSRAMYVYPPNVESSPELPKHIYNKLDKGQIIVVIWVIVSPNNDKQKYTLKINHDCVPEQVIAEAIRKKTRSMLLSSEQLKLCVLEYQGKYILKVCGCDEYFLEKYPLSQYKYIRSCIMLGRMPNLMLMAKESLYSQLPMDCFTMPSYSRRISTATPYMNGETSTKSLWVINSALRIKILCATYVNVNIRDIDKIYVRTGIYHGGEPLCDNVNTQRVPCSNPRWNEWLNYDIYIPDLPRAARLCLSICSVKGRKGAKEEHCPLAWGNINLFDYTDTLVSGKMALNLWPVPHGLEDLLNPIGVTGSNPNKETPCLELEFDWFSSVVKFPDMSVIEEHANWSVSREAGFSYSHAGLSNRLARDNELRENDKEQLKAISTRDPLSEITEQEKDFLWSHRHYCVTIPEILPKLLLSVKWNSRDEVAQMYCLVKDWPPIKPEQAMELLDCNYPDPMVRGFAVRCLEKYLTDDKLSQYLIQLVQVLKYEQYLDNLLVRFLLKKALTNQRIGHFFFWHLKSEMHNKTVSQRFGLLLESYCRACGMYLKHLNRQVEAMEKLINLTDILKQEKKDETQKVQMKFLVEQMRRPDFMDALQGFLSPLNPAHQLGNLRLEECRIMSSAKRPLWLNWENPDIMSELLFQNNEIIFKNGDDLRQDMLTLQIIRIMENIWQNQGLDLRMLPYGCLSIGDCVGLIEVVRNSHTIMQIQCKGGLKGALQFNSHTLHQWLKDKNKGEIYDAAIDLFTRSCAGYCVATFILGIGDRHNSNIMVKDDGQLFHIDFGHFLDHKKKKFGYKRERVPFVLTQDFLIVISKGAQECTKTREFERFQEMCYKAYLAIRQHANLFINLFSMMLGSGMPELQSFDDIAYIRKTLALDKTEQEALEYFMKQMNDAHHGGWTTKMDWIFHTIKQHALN
T2 sequence (P27986 whole entry partner): as the sequence (P27986 whole entry partner) above
From the text for PI3K-delta: HTRF PI3K Biochemical Assay to Measure Intrinsic Potency of Compound Inhibitors
This assay was developed and further optimized from a kit produced by Upstate (Millipore catalog #33-047) and has been configured for HTS and SAR screening. Briefly, this procedure exploits the exquisite specificity and high affinity binding of enzyme reaction substrate phosphatidyl(3,4,5)triphosphate (PIP3) to the GRP1 pleckstrin homology (PH) domain to generate the signal. In the absence of PIP3, an HTRF (Homogeneous Time-Resolved Fluorescence energy transfer) complex is formed consisting of europium (Eu)-labeled anti-GST, GSTtagged GRP1-PH domain, biotin-PIP3 and streptavidin conjugated APC. The native PIP3 produced by PI3-Kinase activity disrupts in a competitive manner the biotin-PIP3 from the PH domain, resulting in the loss of energy transfer (HTRF complex) and a decrease in the signal. The format of this assay is the same for all 4 isoforms of PI3K; the differences lie in the concentration of enzyme used to achieve robust assay window. The alpha, beta, and delta assays are run at 0.5, 1, and 0.3 nM enzymes and the gamma assay is run at 5 nM enzyme. The ATP concentration is 100 uM in the alpha, beta, and delta assays and 50 uM ATP in the gamma assay. All reactions are run at 5 uM PIP2.
Compounds are serially diluted (3-fold in 100% DMSO) across a 384-well polypropylene source plated from column 3 to column 12 and column 13 to column 22, to yield 10 concentration dose response for each test compound. Columns 1, 2, 23 and 24 contain either only DMSO or pharmacological known control inhibitor.
The PI3-Kinase biochemical assay was optimized using the HTRF kit provided by Upstate (Millipore). The assay kit contains six reagents: 1) 4× Reaction Buffer; 2) native PIP2 (substrate); 3) Stop (EDTA); 4) Detection Mix A (Streptavidin-APC); 5) Detection Mix B (Eu-labeled Anti-GST plus GST-tagged PH-domain); 6) Detection Mix C.
PI3Kinase Reaction Buffer is prepared by dilution the stock 1:4 with de-ionized water. […] Enzyme addition and compound pre-incubation are initiated by the addition of 1.25 ul of PI3K (at twice its final concentration) in the 1× reaction buffer to all wells using a BioRaptor. Plates are incubated at room temperature for 15 minutes. Reactions are initiated by addition of 1.25 ul of 2× substrate solution (PIP2 and ATP in 1× reaction buffer) using BioRaptor. Plates are incubated in humidified chamber at room temperature for one hour. Reactions are quenched by addition of 0.625 uL of stop solution to all wells using the BioRaptor. The quenched reactions are then processed to detect product formation by adding 0.625 uL of Detection Solution to all wells using the BioRaptor (Detection mix C, Detection Mix A, and Detection Mix B combined together in an 18:1:1 ratio prepared 2 hours prior to use).
The loss of the HTRF signal is due to the displacement of biotinylated-PIP3 from the PH domain by the PI3K-dependent conversion of PIP2 to PIP3. This loss of signal is nonlinear with respect to both increasing product and time. This non-linear detection will impact accuracy of IC50 calculations; therefore, there is a need for a correction factor to obtain more accurate IC50 values. This correction is derived from a PIP3 standard curve run in a separate assay plate. All data were calculated using the ratio of acceptor (APC) to donor (Europium) fluorescence in each well of the assay plate. […] An IC50 was then calculated fitting the % inhibition data to the equation: % inhibition=min+(Max−min)/1+([inhibitor]/IC50)^n) where min is the % inhibition with inhibitor, max is the signal in DMSO control, and n is the Hill slope.

As for `CCn1c(-c2cnc(C)nc2)nc2c(N[C@H]3CCN(C(=O)N4CCCCC4)C3)ncnc21` [Compound 12-5, 9-ethyl-8-(2-methylpyrimidin-5-yl)-N-[(3S)-1-(piperidin-1-ylcarbonyl)pyrrolidin-3-yl]-9H-purin-6-amine], the IC50 at PI3K-delta turned out to be 1.2 nM. Also, the “Selectivity versus PI3Kalpha” value on PI3K-alpha is on record as greater than 10.
In the same order, the values of `CCn1c(-c2cnc3[nH]ccc3c2)nc2c(N[C@H]3CCN(C(=O)C4CC4)C3)ncnc21` [Compound 3-24, N-[(3S)-1-(cyclopropylcarbonyl)pyrrolidin-3-yl]-9-ethyl-8-(1H-pyrrolo[2,3-b]pyridin-5-yl)-9H-purin-6-amine] are less than 1 nM and greater than 10.
In the same order, the values of `CCn1c(-c2cnc(C)nc2)nc2c(N[C@@H]3CN(C(=O)C4CC4)C[C@H]3O)ncnc21` (racemic) [Compound 2-96, 1-(cyclopropylcarbonyl)-4-{(3R,4R) and (3S,4S)-[9-ethyl-8-(2-methylpyrimidin-5-yl)-9H-purin-6-yl]amino}pyrrolidin-3-ol] are 6 nM and greater than 10.
The matching figures for `CCn1c(C(=O)NCC(F)(F)F)nc2c(N[C@H]3CCN(c4ccccn4)C3)ncnc21` [Compound 6-10, 9-ethyl-6-{[(3S)-1-pyridin-2-ylpyrrolidin-3-yl]amino}-N-(2,2,2-trifluoroethyl)-9H-purine-8-carboxamide]: 16 nM and greater than 10.
As to `CCn1c(-c2cnc(C)nc2)nc2c(N[C@H]3CC[C@@H](C(=O)N4CCC4)C3)ncnc21` [Compound 5-6, N-[(1S,3R)-3-(azetidin-1-ylcarbonyl)cyclopentyl]-9-ethyl-8-(2-methylpyrimidin-5-yl)-9H-purin-6-amine], the IC50 on PI3K-delta worked out at 11 nM. Further, the “Selectivity versus PI3Kalpha” value on PI3K-alpha was greater than 10.
In the same order, the values of `CCn1c(-c2ccc(C(F)(F)F)nc2)nc2c(N[C@H]3CCN(C(=O)[C@H]4C[C@@H](OC)C4)C3)ncnc21` [Compound 2-105, 9-ethyl-N-{(3S)-1-[(cis-3-methoxycyclobutyl)carbonyl]pyrrolidin-3-yl}-8-[6-(trifluoromethyl)pyridin-3-yl]-9H-purin-6-amine] are less than 1 nM and greater than 10.
In the case of `CCNC(=O)N1CCC[C@H](Nc2ncnc3c2nc(-c2cnn(CC)c2C)n3C)C1` [Compound 12-1, (3S)-N-ethyl-3-{[8-(1-ethyl-5-methyl-1H-pyrazol-4-yl)-9-methyl-9H-purin-6-yl]amino}piperidine-1-carboxamide], the IC50 on PI3K-delta amounted to 30 nM. In addition, on PI3K-alpha, the “Selectivity versus PI3Kalpha” value is recorded as greater than 10.
The matching figures for `CCn1c(-c2cnc(C)nc2)nc2c(N[C@H]3CCN(C(=O)C4CCCCN4)C3)ncnc21` (mixture of isomers) [Compound 2-83, 9-ethyl-8-(2-methylpyrimidin-5-yl)-N-[(3S)-1-((R and S)-piperidin-2-ylcarbonyl)pyrrolidin-3-yl]-9H-purin-6-amine]: 19 nM and greater than 10.
In the same order, the values of `CCn1c(-c2cnc(C)nc2)nc2c(N[C@H]3C[C@H](C(=O)NCCN(C)C)N(C(=O)C4CC4)C3)ncnc21` [Compound 15-8, (4S)-1-(cyclopropylcarbonyl)-N-[2-(dimethylamino)ethyl]-4-{[9-ethyl-8-(2-methylpyrimidin-5-yl)-9H-purin-6-yl]amino}-D-prolinamide] are 8.8 nM and greater than 10.
The matching figures for `CCn1c(-c2cnc(C)nc2)nc2c(NC3CN(C(=O)C4CC4)CC3C(F)(F)F)ncnc21` (racemic) [Compound 3-22, N-[(3R,4S and 3S,4R)-1-(cyclopropylcarbonyl)-4-(trifluoromethyl)pyrrolidin-3-yl]-9-ethyl-8-(2-methylpyrimidin-5-yl)-9H-purin-6-amine]: 2.9 nM and greater than 10.
As for `CCCN1CC(Nc2ncnc3c2nc(-c2cnc(C)nc2)n3CC)CCC1=O` (racemic) [Compound 14-5, 5(S and R)-{[9-ethyl-8-(2-methylpyrimidin-5-yl)-9H-purin-6-yl]amino}-1-propylpiperidin-2-one], at PI3K-delta, the IC50 was 21 nM. Besides, the “Selectivity versus PI3Kalpha” value at PI3K-alpha is given as greater than 10.
The matching figures for `CCC(=O)N1CC[C@H](Nc2ncnc3c2nc(CC(C)C)n3C)C1` [Compound 7-3, 9-methyl-8-(2-methylpropyl)-N-[(3S)-1-propanoylpyrrolidin-3-yl]-9H-purin-6-amine]: 140 nM and greater than 10.
In the same order, the values of `CCn1c(-c2cnc(C)nc2)nc2c(N[C@H]3C[C@H](C(=O)NC)N(C(=O)C4CC4)C3)ncnc21` [Compound 15-3, (4S)-1-(cyclopropylcarbonyl)-4-{[9-ethyl-8-(2-methylpyrimidin-5-yl)-9H-purin-6-yl]amino}-N-methyl-D-prolinamide] are 12 nM and greater than 10.
In the same order, the values of `CCn1c(-c2cnc(C)nc2)nc2c(N[C@H]3CC[C@H](C(=O)N(C)C4CC4)C3)ncnc21` [Compound 5-1, (1S,3S)-N-cyclopropyl-3-{[9-ethyl-8-(2-methylpyrimidin-5-yl)-9H-purin-6-yl]amino}-N-methylcyclopentanecarboxamide] are 13 nM and greater than 10.
`CCn1ncc(-c2nc3c(N[C@H]4CCCN(C(=O)C5CCOCC5)C4)ncnc3n2C)c1C` [Compound 2-29, 8-(1-ethyl-5-methyl-1H-pyrazol-4-yl)-9-methyl-N-[(3S)-1-(tetrahydro-2H-pyran-4-ylcarbonyl)piperidin-3-yl]-9H-purin-6-amine]: at PI3K-delta, the IC50 is 11 nM. For the same compound, the “Selectivity versus PI3Kalpha” value on PI3K-alpha is on record as greater than 10.
In the same order, the values of `CCn1c(C(=O)N[C@@H](C)C2CC2)nc2c(N[C@H]3CCN(C(=O)C4CC4)C3)ncnc21` [Compound 6-12, 6-{[(3S)-1-(cyclopropylcarbonyl)pyrrolidin-3-yl]amino}-N-[(1S)-1-cyclopropylethyl]-9-ethyl-9H-purine-8-carboxamide] are 25 nM and greater than 10.
The matching figures for `CCC(=O)N1CCC[C@H](Nc2ncnc3c2nc(-c2cnc(C)nc2)n3CC)C1` [Compound 2-27, 9-ethyl-8-(2-methylpyrimidin-5-yl)-N-[(3S)-1-propanoylpiperidin-3-yl]-9H-purin-6-amine]: 28 nM and greater than 10.
As to `CCn1c(C(=O)NC(C)(C)C)nc2c(N[C@H]3CCN(C(=O)C4CC4)C3)ncnc21` [Compound 6-16, N-tert-butyl-6-{[(3S)-1-(cyclopropylcarbonyl)pyrrolidin-3-yl]amino}-9-ethyl-9H-purine-8-carboxamide], the IC50 on PI3K-delta is 20 nM. Further, the “Selectivity versus PI3Kalpha” value at PI3K-alpha is on record as greater than 10.
In the case of `CCC(=O)N1CC[C@H](Nc2ncnc3c2nc(-c2cnc(C)nc2)n3C)C1` [Compound 3-15, 9-methyl-8-(2-methylpyrimidin-5-yl)-N-[(3S)-1-propanoylpyrrolidin-3-yl]-9H-purin-6-amine], the IC50 at PI3K-delta was 4.3 nM. In addition, at PI3K-alpha, the “Selectivity versus PI3Kalpha” value is on record as greater than 10.
The matching figures for `CCn1c(-c2cnc(C)nc2)nc2c(NC3CCC(=O)N(CC4CC4)C3)ncnc21` (single isomer, unassigned) [Compound 14-6, 5(S or R)-1-(cyclopropylmethyl)-5-{[9-ethyl-8-(2-methylpyrimidin-5-yl)-9H-purin-6-yl]amino}piperidin-2-one]: 4.3 nM and greater than 10.
On to `CCn1c(-c2cnc(C)nc2)nc2c(N[C@H]3CCN(C(=O)C4C5CCNC54)C3)ncnc21` (mixture of isomers) [Compound 2-85, N-[(3S)-1-(1(R and S), 5(R and S), 6(R and S)-2-azabicyclo[3.1.0]hex-6-ylcarbonyl)pyrrolidin-3-yl]-9-ethyl-8-(2-methylpyrimidin-5-yl)-9H-purin-6-amine], for which, on PI3K-delta, the IC50 worked out at 7.3 nM. The “Selectivity versus PI3Kalpha” value on PI3K-alpha is given as greater than 10.
In the same order, the values of `CCn1c(-c2cnc(C)nc2)nc2c(N[C@H]3CCN(C(=O)NCc4ccco4)C3)ncnc21` [Compound 12-21, (3S)-3-{[9-ethyl-8-(2-methylpyrimidin-5-yl)-9H-purin-6-yl]amino}-N-(furan-2-ylmethyl)pyrrolidine-1-carboxamide] are 7 nM and greater than 10.
Turning to `CCn1c(-c2cnc(C)nc2)nc2c(N[C@H]3CCN(C(=O)NC4CCC4)C3)ncnc21` [Compound 12-22, (3S)-N-cyclobutyl-3-{[9-ethyl-8-(2-methylpyrimidin-5-yl)-9H-purin-6-yl]amino}pyrrolidine-1-carboxamide], at PI3K-delta, the IC50 worked out at 5.3 nM. On PI3K-alpha, the “Selectivity versus PI3Kalpha” value is given as greater than 10.
In the same order, the values of `CCn1c(-c2cnc(C)nc2)nc2c(N[C@H]3CCN(C(=O)[C@@H]4CCCN4C)C3)ncnc21` [Compound 2-43, 9-ethyl-N-[(3S)-1-(1-methyl-L-prolyl)pyrrolidin-3-yl]-8-(2-methylpyrimidin-5-yl)-9H-purin-6-amine] are 16 nM and greater than 10.
In the same order, the values of `CCC(C)OC(=O)N1CC[C@H](Nc2ncnc3c2nc(-c2cnc(C)nc2)n3CC)C1` (mixture of isomers) [Compound 13-9, (S and R)-1-methylpropyl (3S)-3-{[9-ethyl-8-(2-methylpyrimidin-5-yl)-9H-purin-6-yl]amino}pyrrolidine-1-carboxylate] are 3.5 nM and greater than 10.
For the compound `CCn1c(-c2cnc(C)nc2)nc2c(N[C@H]3C[C@H](C(N)=O)N(C(=O)C4CC4)C3)ncnc21` [Compound 15-5, (4S)-1-(cyclopropylcarbonyl)-4-{[9-ethyl-8-(2-methylpyrimidin-5-yl)-9H-purin-6-yl]amino}-D-prolinamide], on PI3K-delta, the IC50 is 3 nM. Also, the “Selectivity versus PI3Kalpha” value on PI3K-alpha is greater than 10.
The matching figures for `CCn1c(-c2cnc(C)nc2)nc2c(N[C@H]3CCN(C(=O)[C@@H]4C[C@@H]4C)C3)ncnc21` [Compound 2-90, 9-ethyl-N-[(3S)-1-{[(1R,2S)-2-methylcyclopropyl]carbonyl}pyrrolidin-3-yl]-8(2-methylpyrimidin-5-yl)-9H-purin-6-amine]: 1.3 nM and greater than 10.
